Test results: patent US20220332720A1, “BICYCLIC AGONISTS OF STIMULATOR OF INTERFERON GENES STING” (The Scripps Research Institute, priority 2019, published 2022)
pEC50: −log10 of the molar value.

test system: THP-1 Lucia ISG cells; assay: ISG-LUC activation assay (ISRE-luciferase assay); assay type: cell-based; conditions: Homo sapiens, THP1-Lucia ISG; THP-1 Lucia ISG reporter cells, 24 hours; score based upon potency and efficacy relative to reference compound; read-out: ISG-LUC activation assay score
Text: We have established a robust platform for identifying non-nucleotide small molecule STING agonists. his has been established using a primary assay involving a human THP-1 cell line carrying an IRF-inducible reporter with 5 copies of the IFN signaling response element. Counter screens, involving alternative reporter constructs, rodent cell-based assays, as well as cGAS and STING knock-out cell lines, are used to eliminate luciferase artifacts and ensure human-rodent cross species reactivity, as well as pathway selectivity. Biochemical assays, involving cGAS enzymatic activity and STING protein binding assays, are used to identify the specific target of identified hits.
Tissue culture. Wild-type (cat. no. thpl-isg) and STING KO (cat. no. thpd-kostg) THP-1-Lucia ISG cells were purchased from Invivogen and maintained in growth media consisting of RPMI 1640, 2mM L-glutamine, […], 10% heat-inactivated fetal bovine serum (FBS), 1,000 units/ml penicillin, 1,000 μg/ml streptomycin, 0.25 μg/ml Amphotericin B, and 100 μg/ml zeocin unless otherwise stated.
ISRE-luciferase assay. THP-1 Lucia ISG cells were resuspended in low-serum growth media (2% FBS) at a density of 5×10^5 cells/ml and treated with test article or vehicle (DMSO). 50 μL of cells were seeded into each well of a 384-well white greiner plates and incubated for 24 hours. To evaluate expression of the luciferase reporter, 30 μl of Quanti-luc (Invivogen) detection reagent was added to each well and luminescence was read using an Envision plate reader (Perkin Elmer) set with an integration time of 0.1 seconds.

SMILES | pEC50
O=C1CCn2nc(C(=O)Nc3cc(Cl)c(Cl)cc3C(=O)O)nc2N1 [Compound 23] | < 4.70
COC(=O)c1cc(F)c(F)cc1NC(=O)c1ccn2c(C#N)cnc2n1 [Compound 75] | < 6.00
C#Cc1cc(NC(=O)c2ccn3c(-c4cn[nH]c4)cnc3n2)c(C(=O)OC)cc1F [Compound 20] | < 6.00
COC(=O)c1cc(Cl)c(Cl)cc1NC(=O)c1cccn2cnnc12 [Compound 89] | < 6.00
CCOC(=O)c1nc(Cl)sc1NC(=O)c1cc(N)c2nnnn2n1 [Compound 45] | < 6.00
CC#Cc1cc(NC(=O)c2cc(N)c3nnnn3n2)c(C(=O)OC)cc1F [Compound 39] | < 6.00
COC(=O)c1cc(F)c(F)cc1NC(=O)c1cc2[nH]cnc2cn1 [Compound 69] | > 6.05
COC(=O)c1cc(C#N)c(Cl)cc1NC(=O)c1cnc2nc[nH]c2c1 [Compound 72] | < 4.70
Nc1cc2nnnn2nc1C(=O)Nc1cc(Cl)c(Cl)cc1C(=O)O [Compound 74] | > 5.52

Next, values leading:

pEC50 | SMILES
< 6.00 | Cc1cc(NC(=O)c2cc(N)c3nnnn3n2)c(C(=O)O)cc1F [Compound 43]
< 6.00 | C#Cc1cc(NC(=O)c2ccc3c(-c4nnc[nH]4)nnn3n2)c(C(=O)O)cc1F [Compound 61]
< 6.00 | C#Cc1cc(NC(=O)c2cc(N)n3ccnc3n2)c(C(=O)O)cc1F [Compound 32]
< 4.70 | Nc1cc(C(=O)Nc2cc3ccccc3cc2C(=O)O)nn2nnnc12 [Compound 29]
< 6.00 | C#Cc1cc(NC(=O)c2ccc3c(C#N)nnn3n2)c(C(=O)OC)cc1F [Compound 52]
< 6.00 | COc1cc(NC(=O)c2cc(N)c3nnnn3n2)c(C(=O)O)cc1F [Compound 73]
